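Briefly, cells in 96-well plates were exposed to five compound concentrations for 48 h, and endpoints were estimated by linear interpolation. Abbreviation: GI50, concentration required for 50% inhibition of growth.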 The source made the active and inactive calls. Cut-off read from the data, not from the text of the source: active = GI50 up to about 1.1 µM and inactive = higher.
Legend:
Assay in all cases: growth of human tumour cells (NCI), 48 h
HCT-116 = system: HCT-116
LOX IMVI = system: LOX IMVI
HCT-15 = system: HCT-15
UACC-62 = system: UACC-62
SF-268 = system: SF-268
NCI-H460 = system: NCI-H460
SF-539 = system: SF-539
A549 = system: A549
SN12C = system: SN12C
OVCAR-5 = system: OVCAR-5
MDA-N = system: MDA-N
UO-31 = system: UO-31
SK-MEL-5 = system: SK-MEL-5
M14 = system: M14
HCC 2998 = system: HCC 2998
HOP-92 = system: HOP-92
TK-10 = system: TK-10
SW-620 = system: SW-620
KM12 = system: KM12
NCI-H226 = system: NCI-H226
786-0 = system: 786-0
CAKI-1 = system: CAKI-1
RXF 393 = system: RXF 393
EKVX = system: EKVX
NCI-H522 = system: NCI-H522
SK-OV-3 = system: SK-OV-3
NCI-H23 = system: NCI-H23
U-251 = system: U-251
DU-145 = system: DU-145
HOP-62 = system: HOP-62
RPMI-8226 = system: RPMI-8226
MDA-MB-231 = system: MDA-MB-231
SNB-75 = system: SNB-75
A498 = system: A498
OVCAR-3 = system: OVCAR-3
HT-29 = system: HT-29
K562 = system: K562
ACHN = system: ACHN
OVCAR-8 = system: OVCAR-8
MDA-MB-435 = system: MDA-MB-435
SR = system: SR
MCF7 = system: MCF7
COLO 205 = system: COLO 205
Hs-578T = system: Hs-578T
IGROV-1 = system: IGROV-1
CCRF-CEM = system: CCRF-CEM
UACC-257 = system: UACC-257
SF-295 = system: SF-295
OVCAR-4 = system: OVCAR-4
NCI/ADR-RES = system: NCI/ADR-RES
SNB-19 = system: SNB-19
Malme-3M = system: Malme-3M
MOLT-4 = system: MOLT-4
SK-MEL-28 = system: SK-MEL-28

CC(C)(C)OC(=O)/C=C/C(=O)O/C=C/[N+](=O)[O-]
GI50 (HCT-116): > 100 µM (inactive) | GI50 (LOX IMVI): > 100 µM (inactive) | GI50 (HCT-15): > 100 µM | GI50 (UACC-62): > 100 µM (inactive) | GI50 (SF-268): > 100 µM (inactive) | GI50 (NCI-H460): > 100 µM (inactive) | GI50 (SF-539): > 100 µM (inactive) | GI50 (A549): > 100 µM (inactive) | GI50 (SN12C): > 100 µM (inactive) | GI50 (OVCAR-5): > 100 µM (inactive) | GI50 (MDA-N): > 100 µM (inactive) | GI50 (UO-31): > 100 µM (inactive) | GI50 (SK-MEL-5): > 100 µM (inactive) | GI50 (M14): > 100 µM (inactive) | GI50 (HCC 2998): > 100 µM (inactive) | GI50 (HOP-92): > 100 µM (inactive) | GI50 (TK-10): > 100 µM (inactive) | GI50 (SW-620): > 100 µM (inactive) | GI50 (KM12): > 100 µM (inactive) | GI50 (NCI-H226): > 100 µM (inactive) | GI50 (786-0): > 100 µM (inactive) | GI50 (CAKI-1): > 100 µM (inactive) | GI50 (RXF 393): > 100 µM (inactive) | GI50 (EKVX): > 100 µM (inactive) | GI50 (NCI-H522): > 100 µM (inactive) | GI50 (SK-OV-3): > 100 µM (inactive) | GI50 (NCI-H23): > 100 µM (inactive) | GI50 (U-251): > 100 µM (inactive) | GI50 (DU-145): > 100 µM (inactive) | GI50 (HOP-62): > 100 µM (inactive) | GI50 (RPMI-8226): > 100 µM (inactive) | GI50 (MDA-MB-231): > 100 µM (inactive) | GI50 (SNB-75): > 100 µM (inactive) | GI50 (A498): > 100 µM (inactive) | GI50 (OVCAR-3): > 100 µM (inactive) | GI50 (HT-29): > 100 µM (inactive) | GI50 (K562): 14.4 µM (inactive) | GI50 (ACHN): > 100 µM (inactive) | GI50 (OVCAR-8): > 100 µM (inactive) | GI50 (MDA-MB-435): > 100 µM (inactive) | GI50 (SR): 18.2 µM (inactive) | GI50 (MCF7): > 100 µM (inactive) | GI50 (COLO 205): > 100 µM (inactive) | GI50 (Hs-578T): > 100 µM (inactive) | GI50 (IGROV-1): > 100 µM (inactive) | GI50 (CCRF-CEM): > 100 µM (inactive) | GI50 (UACC-257): > 100 µM (inactive) | GI50 (SF-295): > 100 µM (inactive)

COc1ccc(C[C@H]2COC(=O)[C@@H]2Cc2ccc(O)cc2)cc1OC
GI50 (HCT-116): > 100 µM (inactive) | GI50 (LOX IMVI): > 100 µM (inactive) | GI50 (OVCAR-4): > 100 µM (inactive) | GI50 (NCI/ADR-RES): > 100 µM (inactive) | GI50 (NCI-H460): > 100 µM (inactive) | GI50 (A549): > 10 µM (inactive) | GI50 (OVCAR-5): > 100 µM (inactive) | GI50 (SK-MEL-5): > 100 µM (inactive) | GI50 (SNB-19): > 100 µM (inactive) | GI50 (M14): > 100 µM (inactive) | GI50 (HOP-92): > 100 µM (inactive) | GI50 (TK-10): > 100 µM (inactive) | GI50 (SW-620): > 100 µM (inactive) | GI50 (NCI-H226): > 100 µM (inactive) | GI50 (786-0): > 100 µM (inactive) | GI50 (EKVX): > 100 µM (inactive) | GI50 (Malme-3M): > 100 µM (inactive) | GI50 (MOLT-4): > 100 µM (inactive) | GI50 (NCI-H23): > 100 µM (inactive) | GI50 (DU-145): > 100 µM (inactive) | GI50 (HOP-62): > 100 µM (inactive) | GI50 (RPMI-8226): > 100 µM (inactive) | GI50 (A498): > 100 µM (inactive) | GI50 (OVCAR-3): > 100 µM (inactive) | GI50 (HT-29): > 100 µM (inactive) | GI50 (K562): > 100 µM (inactive) | GI50 (ACHN): > 100 µM (inactive) | GI50 (OVCAR-8): > 100 µM (inactive) | GI50 (SR): > 100 µM (inactive) | GI50 (SK-MEL-28): > 100 µM (inactive) | GI50 (Hs-578T): > 100 µM (inactive) | GI50 (IGROV-1): > 100 µM (inactive) | GI50 (CCRF-CEM): > 100 µM (inactive) | GI50 (UACC-257): > 100 µM (inactive) | GI50 (SF-295): > 100 µM (inactive)
